Measurements from ChEMBL document CHEMBL1201862, “PubChem BioAssay data set” (2004).
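Method: 48-hour compound exposure of cells in 96-well plates, five concentrations, linear interpolation of endpoints. GI50 = concentration required for 50% inhibition of growth.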 Active and inactive are the calls of the source. Rule as the data show it: active = GI50 up to about 1.1 µM and inactive = higher.

Assays:
Assay in all cases: growth of human tumour cells (NCI), 48 h
NCI-H460 = test system: NCI-H460
NCI-H23 = test system: NCI-H23
OVCAR-8 = test system: OVCAR-8
HCT-116 = test system: HCT-116
SNB-75 = test system: SNB-75
LOX IMVI = test system: LOX IMVI
U-251 = test system: U-251
CAKI-1 = test system: CAKI-1
EKVX = test system: EKVX
UO-31 = test system: UO-31
TK-10 = test system: TK-10
HCT-15 = test system: HCT-15
COLO 205 = test system: COLO 205
SK-MEL-28 = test system: SK-MEL-28
KM-20L2 = test system: KM-20L2
A549 = test system: A549
SNB-78 = test system: SNB-78
786-0 = test system: 786-0
OVCAR-5 = test system: OVCAR-5
M14 = test system: M14
RXF 631 = test system: RXF 631
SK-MEL-5 = test system: SK-MEL-5
RPMI-8226 = test system: RPMI-8226
UACC-62 = test system: UACC-62
SK-OV-3 = test system: SK-OV-3
SN12C = test system: SN12C
ACHN = test system: ACHN
Malme-3M = test system: Malme-3M
HCC 2998 = test system: HCC 2998
OVCAR-3 = test system: OVCAR-3
KM12 = test system: KM12
DMS-273 = test system: DMS-273
SF-268 = test system: SF-268
CCRF-CEM = test system: CCRF-CEM
SF-295 = test system: SF-295
OVCAR-4 = test system: OVCAR-4
M19-MEL = test system: M19-MEL
DLD-1 = test system: DLD-1
MOLT-4 = test system: MOLT-4
HOP-18 = test system: HOP-18
SNB-19 = test system: SNB-19
HT-29 = test system: HT-29
K562 = test system: K562
IGROV-1 = test system: IGROV-1
SW-620 = test system: SW-620
HOP-62 = test system: HOP-62
LXFL 529 = test system: LXFL 529
A498 = test system: A498
NCI-H522 = test system: NCI-H522
DMS-114 = test system: DMS-114
UACC-257 = test system: UACC-257
NCI-H226 = test system: NCI-H226
HOP-92 = test system: HOP-92
RXF 393 = test system: RXF 393
SK-MEL-2 = test system: SK-MEL-2
SR = test system: SR
SF-539 = test system: SF-539
XF498 = test system: XF498
HL-60 = test system: HL-60

Measured: GI50

CN(C)Cc1cc(/C(=C(\C#N)c2ccccc2)c2ccc(O)cc2)ccc1O
25.4 µM: HCT-15
inactive: NCI-H460 19.6 µM | NCI-H23 19.1 µM | OVCAR-8 19.1 µM | HCT-116 10.2 µM | SNB-75 17.5 µM | LOX IMVI 12.1 µM | U-251 17.9 µM | CAKI-1 20.9 µM | EKVX 23.9 µM | UO-31 20.4 µM | TK-10 23 µM | COLO 205 14.5 µM | SK-MEL-28 13.6 µM | KM-20L2 20.4 µM | A549 24.6 µM | SNB-78 32.1 µM | 786-0 15 µM | OVCAR-5 26.2 µM | M14 10.4 µM | RXF 631 17.8 µM | SK-MEL-5 14.5 µM | RPMI-8226 20.2 µM | UACC-62 17.8 µM | SK-OV-3 27 µM | SN12C 18.3 µM | ACHN 13.9 µM | Malme-3M 16.1 µM | HCC 2998 15.5 µM | OVCAR-3 18.7 µM | KM12 19.9 µM | DMS-273 17.4 µM | SF-268 20 µM | CCRF-CEM 18.4 µM | SF-295 18.4 µM | OVCAR-4 21.5 µM | M19-MEL 16.9 µM | DLD-1 20.8 µM | MOLT-4 15.3 µM | HOP-18 19.9 µM | SNB-19 28.8 µM | HT-29 15.4 µM | K562 20 µM | IGROV-1 30.5 µM | SW-620 21 µM | HOP-62 14.4 µM | LXFL 529 18.2 µM | A498 32.2 µM | NCI-H522 12.9 µM | DMS-114 15.1 µM | UACC-257 15.6 µM | NCI-H226 21.9 µM | HOP-92 14.4 µM | RXF 393 3.96 µM | SK-MEL-2 17.3 µM | SR 12.9 µM

C[N+]1=c2c3cccc4cccc(c(=O)n2CCC1)c43
inactive: SF-539 30.8 µM | NCI-H460 18.2 µM | NCI-H23 19 µM | OVCAR-8 17.7 µM | HCT-116 16.1 µM | SNB-75 25.1 µM | LOX IMVI 15.3 µM | U-251 29.9 µM | CAKI-1 31 µM | EKVX 24.9 µM | UO-31 17.9 µM | TK-10 14.6 µM | COLO 205 16.2 µM | SK-MEL-28 19.4 µM | XF498 18.6 µM | KM-20L2 20 µM | A549 32.2 µM | SNB-78 29 µM | 786-0 35.9 µM | OVCAR-5 17.8 µM | M14 17.2 µM | SK-MEL-5 17.9 µM | RPMI-8226 19.6 µM | UACC-62 18.7 µM | SK-OV-3 27.5 µM | SN12C 21 µM | ACHN 22.4 µM | Malme-3M 18 µM | OVCAR-3 22.9 µM | KM12 31 µM | DMS-273 24.4 µM | SF-268 23.5 µM | CCRF-CEM 3.13 µM | SF-295 40.4 µM | OVCAR-4 18.9 µM | M19-MEL 17.9 µM | DLD-1 21.4 µM | MOLT-4 19.9 µM | HOP-18 53.8 µM | HT-29 20.1 µM | K562 9.02 µM | IGROV-1 36 µM | SW-620 25.2 µM | HL-60 4.36 µM | HOP-62 31 µM | LXFL 529 17.6 µM | A498 18.5 µM | NCI-H522 15.8 µM | DMS-114 20.6 µM | UACC-257 17.3 µM | NCI-H226 18.4 µM | HOP-92 28.1 µM | RXF 393 22.1 µM | SK-MEL-2 16.6 µM | SR 18.2 µM
35.6 µM: HCT-15
